Patent publication US20210386841A1, “COMPOSITIONS FOR TRANSFECTING mRNA INTO A CELL AND THEIR APPLICATIONS” (POLYPLUS TRANSFECTION, priority 2018, published 2021)

How the values were obtained:
Format in all cases: cell-based
[1] = test system: Jurkat Clone E6-1 human T lymphoblast cells; test: eGFP mRNA transfection, Jurkat cells (96-well); details: 150 ng eGFP mRNA, 24 h
Experimental: Jurkat Clone E6-1 (ATCC® TIB-152™) human T lymphoblast cells were grown in RPMI-1640 (LONZA) with 10% of FBS (EUROBIO) and supplemented with 2 mM Glutamine (LONZA), 100 U/mL of penicillin and 100 μg/mL of streptomycin (LONZA) at 37° C. in a 5% CO2 in air atmosphere.
(§1) mRNA eGFP (996 nt, reference L-6101) from TriLink Technologies was used for the in vitro transfection experiments and expressed enhanced green fluorescent protein which is a common reporter gene (eGFP). This mRNA was capped with a Cap 0, polyadenylated and modified with 5-methylcytidine and pseudo-uridine.
(§2) One day before transfection, Caco-2, THP-1 or BJ Cells were seeded at 10 000, 25 000, or 5 000 cells per well (96-well plate format), respectively, in 125 μL of their respective complete medium and incubated at 37° C. in a 5% CO2 in air atmosphere. For Jurkat cells, 25 000 cells were seeded per well prior transfection. On the day of transfection 150 ng of mRNA was added in 11.5 μL of 5% glucose solution, mixed with a vortex and incubated for 5 minutes at rt. Then, 1 μL of 1 mM cationic liposomal formulation was added onto the diluted mRNA, mixed with a vortex and incubated for 15 minutes at rt. The formulated mRNA solution (12.5 μL) was added into the well and the plate was incubated for 24 hours at 37° C. in a 5% CO2 in air atmosphere.
(§3) For the GFP expression analysis, the cell culture medium was removed for the adherent cells and 50 μL of trypsin-EDTA (1×, Lonza) was added and the plate was incubated for 5 minutes at 37° C. 150 μL of complete medium were added to neutralize the trypsin, and the GFP expression was analysed (2000 events) by flow cytometry (Exc 488 nm, Em 520 nm) using a Guava easyCyte 6HT cytometer (Millipore).
(§4) All these new liposomal formulations (Table 1) were assessed to deliver mRNA expressing an enhanced green fluorescent protein (eGFP) as reporter gene in order to determine the gene expression and the transfection efficiency (Table 2). mRNA eGFP capped with a Cap 0 in 5′-end, polyadenylated in 3′-end and modified with 5-methylcytidine and pseudo-uridine was used in the transfection assay. The transfection assay was performed as described in the Experimental section where 150 ng of mRNA eGFP was complexed with 1 μL of 1 mM cationic liposomal formulations in a 5% glucose solution before the addition on the cells. One day post-transfection, the eGFP expression was analyzed by flow cytometry to determine the percentage of transfection. Four different cell lines were used in this assay from easy to transfect cells to hard to transfect cells with plasmid DNA, including human BJ skin fibroblast cells, THP-1 human peripheral blood monocytes, Caco-2 human colon epithelial cells and Jurkat Clone E6-1 human T lymphoblast cells, respectively.

[2] = test system: THP-1 human peripheral blood monocyte cells; test: eGFP mRNA transfection, THP-1 cells (96-well); details: ratio 1/2, 150 ng eGFP mRNA, 24 h
Experimental: THP-1 (ATCC® TIB-202™) human peripheral blood monocyte cells were grown in RPMI-1640 with 10% FBS and supplemented with 10 mM HEPES buffer, 1 mM sodium pyruvate, 0.05 mM 2-mercaptoethanol, 2 mM glutamine, 100 U/mL of penicillin and 100 μg/mL of streptomycin at 37° C. in a 5% CO2 in air atmosphere.
as §1, §2, §3, §4

[3] = test system: Caco-2 human colon epithelial cells; test: eGFP mRNA transfection, Caco-2 cells (96-well); details: ratio 1/2, 150 ng eGFP mRNA, 24 h
Experimental: Caco-2 (ATCC® HTB-37™) human colon epithelial cells were grown in DMEM 4.5 g/L glucose with 20% FBS supplemented with 1% non-essential amino acids, 1 mM sodium pyruvate, 2 mM glutamine and 100 U/mL of penicillin and 100 μg/mL of streptomycin at 37° C. in a 5% CO2 in air atmosphere.
as §1, §2, §3, §4

[4] = co-lipid DOPE, ratio compound/co-lipid 1/2, 1 μL of 1 mM formulation, flow cytometry

Row | Structure (SMILES) | Transfection efficiency (eGFP %) Jurkat [1, 4] | Transfection efficiency (eGFP %) THP-1 ([2]; co-lipid DOPE) | Transfection efficiency (eGFP %) CaCO2 ([3]; co-lipid DOPE) | Transfection efficiency (eGFP %) Jurkat ([1]; co-lipid DPyPE, ratio 1/2) | Transfection efficiency (eGFP %) CaCO2 ([3]; co-lipid DPyPE) | Transfection efficiency (eGFP %) THP-1 ([2]; co-lipid DPyPE) | Transfection efficiency (eGFP %) Jurkat ([1]; co-lipid DPyPE, ratio 1/1.5)
1 | CCCCCCCCCCCCCCCCCCC(CCCCCCCCCCCCCCCCCC)CCCCC(CC1CCCCC1)[n+]1ccn(C)c1.[Cl-] (stereo not drawn) [Compound W14.7, 1-methyl-3-(1-cyclohexyl-7-octadecylpentacosan-2-yl)-1H-imidazol-3-ium chloride] | 25-35% | 55-65% |  |  |  |  | 
2 | CCCCCCCCCCCCCCCCCCC(CCCCCCCCCCCCCCCCCC)CCCCC(Cc1ccccc1)[n+]1ccn(C)c1.[Cl-] (stereo not drawn) [Compound W15.7, 1-methyl-3-(7-octadecyl-1-phenylpentacosan-2-yl)-1H-imidazol-3-ium chloride] | 25-30% | 55-70% |  |  |  |  | 
3 | CCCCCCCCCCCCCCCCCCC(CCCCCCCCCCCCCCCCCC)CCCCC(CCC(C)CCCC(C)C)[n+]1ccn(C)c1.[Cl-] (stereo not drawn) [Compound W16.7, 1-methyl-3-(2,6-dimethyl-14-octadecyldotriacontan-9-yl)-1H-imidazole-3-ium chloride] | 35-40% | 75-80% | 15-20% |  |  |  | 
4 | CCCCCCCCCCCCCCCCCCC(CCCCCCCCCCCCCCCCCC)CCCCC(CCCCCC)[n+]1ccn(C)c1.[Cl-] (stereo not drawn) [Compound W17.7, 1-methyl-3-(12-octadecyltriacontan-7-yl)-1H-imidazol-3-ium chloride] | 30-35% | 70-75% |  |  |  |  | 
5 | CCCCCCCCCCCCCCC(CCCCCCCCCCCCCC)CCCCC(CCCCC(CCCCCCCCCCCCCC)CCCCCCCCCCCCCC)[n+]1ccn(C)c1.[Cl-] [Compound W18.9, 1-methyl-3-(15,25-ditetradecylnonatriacontan-20-yl)-1H-imidazol-3-ium chloride] | 25-30% | 80-85% |  |  |  |  | 
6 | CCCCCCCCCCCCCCCCCCNC(CCCCCCCCCC)CCCC(CCCCCCCCCC)n1cc[n+](C)c1.Cl.[Cl-] (stereo not drawn) [Compound W19.7, 1-methyl-3-(15-(octadecylammonio)pentacosan-11-yl)-1H-imidazol-3-ium chloride] | 40-50% | 40-50% |  |  |  |  | 
7 | CCCCCCCCCCCCCCCCCCC(CCCCCCCCCCCCCCCCCC)CCCCC(CCC(C)CCCC(C)C)[n+]1ccn(CCCC)c1.[Cl-] (stereo not drawn) [Compound W21.7, 1-butyl-3-(2,6-dimethyl-14-octadecyldotriacontan-9-yl)-1H-imidazol-3-ium chloride] | 40-50% | 70-80% | 50-60% | 55-65% | 60-70% | 70-80% | 
8 | CCCCCCCCCCCCCCC(CCCCCCCCCCCCCC)CCCCC(CCC(C)CCCC(C)C)[n+]1ccn(CCCC)c1.[Cl-] (stereo not drawn) [Compound W22.7, 1-butyl-3-(2,6-dimethyl-14-tetradecyloctacosan-9-yl)-1H-imidazol-3-ium chloride] | 50-60% | 70-80% |  | 40-55% |  | 80-85% | 
9 | CCCCn1cc[n+](C(CCCCC(CCC(C)CCCC(C)C)CCC(C)CCCC(C)C)CCC(C)CCCC(C)C)c1.[Cl-] (stereo not drawn) [Compound W23.7, 1-butyl-3-(14-(3,7-dimethyloctyl)-2,6,17,21-tetramethyldocosan-9-yl)-1H-imidazol-3-ium chloride] |  |  |  |  |  |  | 25-30%
